Reference: patent US11078198B2 (BRISTOL-MYERS SQUIBB COMPANY, priority 2017, dated 2021)

Target: T1, human FXR (Homo sapiens, UniProt Q96RI1)
T1 construct: expressed in transfected cells; host or cells: HEK293 cells stably carrying a 5xGal4-response-element firefly luciferase reporter, transiently transfected with pcDNA3.1-Gal4-FXR
T1 sequence (Q96RI1 262-486 limits assumed): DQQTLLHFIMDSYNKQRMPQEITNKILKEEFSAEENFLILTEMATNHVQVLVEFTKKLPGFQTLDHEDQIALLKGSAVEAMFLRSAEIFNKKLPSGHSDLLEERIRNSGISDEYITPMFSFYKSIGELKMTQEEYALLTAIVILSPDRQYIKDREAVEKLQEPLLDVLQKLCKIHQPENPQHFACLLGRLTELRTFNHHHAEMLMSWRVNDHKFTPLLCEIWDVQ
Assay: transient human FXR/Gal4-luciferase reporter assay
Type: cell-based
Conditions: Gal4-hFXR transfected HEK293 reporter cells; relative to 8 μM GW-4064
Method in brief: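 Transient Gal4-hFXR LBD fusion (pcDNA3.1, Lipofectamine, overnight) expressed in a HEK293 reporter line stably bearing five Gal4 elements upstream of firefly luciferase, grown in charcoal/dextran-stripped FBS. Compound dilutions in DMSO incubated with cells overnight at 37° C, 5% CO2, before luciferase readout.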

| EC50 [nM] | SMILES |
| --- | --- |
| 178 | O=C(NS(=O)(=O)C1CC1)c1ccc2cc(N3CCC4(C=C(c5c(-c6c(Cl)cccc6Cl)noc5C5CC5)C4)CC3)ccc2n1 [Example 193, 6-(2-(5-Cyclopropyl-3-(2,6-dichlorophenyl)isoxazol-4-yl)-7-azaspiro[3.5]non-1-en-7-yl)-N-(cyclopropylsulfonyl)quinoline-2-carboxamide] |
| 255 | CS(=O)(=O)NC(=O)c1ccc2cc(N3CCC4(C=C(c5c(-c6c(Cl)cccc6Cl)noc5C5CC5)C4)CC3)ccc2n1 [Example 194, 6-(2-(5-Cyclopropyl-3-(2,6-dichlorophenyl)isoxazol-4-yl)-7-azaspiro[3.5]non-1-en-7-yl)-N-(methylsulfonyl)quinoline-2-carboxamide] |
| 75 | COc1cc(C(=O)NS(C)(=O)=O)nc2ccc(N3CCC4(C=C(c5c(-c6c(Cl)cncc6Cl)noc5C5CC5)C4)CC3)cc12 [Example 195, 6-(2-(5-Cyclopropyl-3-(3,5-dichloropyridin-4-yl)isoxazol-4-yl)-7-azaspiro[3.5]non-1-en-7-yl)-4-methoxy-N-(methylsulfonyl)quinoline-2-carboxamide] |
| 155 | COc1cc(C(=O)NS(C)(=O)=O)nc2ccc(N3CCC4(C=C(c5c(-c6ccccc6C(F)(F)F)noc5C5CC5)C4)CC3)cc12 [Example 196, 6-(2-(5-Cyclopropyl-3-(2-(trifluoromethyl)phenyl)isoxazol-4-yl)-7-azaspiro[3.5]non-1-en-7-yl)-4-methoxy-N-(methylsulfonyl)quinoline-2-carboxamide] |
| 381 | NS(=O)(=O)NC(=O)c1cc(F)c2nc(N3CCC4(C=C(c5c(-c6c(Cl)cncc6Cl)noc5C5CC5)C4)CC3)sc2c1 [Example 197, 2-(2-(5-Cyclopropyl-3-(3,5-dichloropyridin-4-yl)isoxazol-4-yl)-7-azaspiro[3.5]non-1-en-7-yl)-4-fluoro-N-sulfamoylbenzo[d]thiazole-6-carboxamide] |
| 311 | CNC(=O)c1cc(F)c2nc(N3CCC4(C=C(c5c(-c6c(Cl)cncc6Cl)noc5C5CC5)C4)CC3)sc2c1 [Example 198, 2-(2-(5-Cyclopropyl-3-(3,5-dichloropyridin-4-yl)isoxazol-4-yl)-7-azaspiro[3.5]non-1-en-7-yl)-4-fluoro-N-methylbenzo[d]thiazole-6-carboxamide] |
| 431 | CC(C)NC(=O)c1cc(F)c2nc(N3CCC4(C=C(c5c(-c6c(Cl)cncc6Cl)noc5C5CC5)C4)CC3)sc2c1 [Example 199, 2-(2-(5-Cyclopropyl-3-(3,5-dichloropyridin-4-yl)isoxazol-4-yl)-7-azaspiro[3.5]non-1-en-7-yl)-4-fluoro-N-isopropylbenzo[d]thiazole-6-carboxamide] |
| 68 | CCNC(=O)c1cc(F)c2nc(N3CCC4(C=C(c5c(-c6c(Cl)cncc6Cl)noc5C5CC5)C4)CC3)sc2c1 [Example 200, 2-(2-(5-Cyclopropyl-3-(3,5-dichloropyridin-4-yl)isoxazol-4-yl)-7-azaspiro[3.5]non-1-en-7-yl)-N-ethyl-4-fluorobenzo[d]thiazole-6-carboxamide] |
| 150 | O=C(NC1CC1)c1cc(F)c2nc(N3CCC4(C=C(c5c(-c6c(Cl)cncc6Cl)noc5C5CC5)C4)CC3)sc2c1 [Example 201, N-Cyclopropyl-2-(2-(5-cyclopropyl-3-(3,5-dichloropyridin-4-yl)isoxazol-4-yl)-7-azaspiro[3.5]non-1-en-7-yl)-4-fluorobenzo[d]thiazole-6-carboxamide] |
| 155 | NC(=O)c1cc(F)c2nc(N3CCC4(C=C(c5c(-c6c(Cl)cncc6Cl)noc5C5CC5)C4)CC3)sc2c1 [Example 202, 2-(2-(5-Cyclopropyl-3-(3,5-dichloropyridin-4-yl)isoxazol-4-yl)-7-azaspiro[3.5]non-1-en-7-yl)-4-fluorobenzo[d]thiazole-6-carboxamide] |
| 946 | CCOC(=O)c1cc(C(F)(F)F)c2cc(N3CCC4(C=C(c5c(-c6c(Cl)cncc6Cl)noc5C5CC5)C4)CC3)ccc2n1 [Example 203, Ethyl 6-(2-(5-cyclopropyl-3-(3,5-dichloropyridin-4-yl)isoxazol-4-yl)-7-azaspiro[3.5]non-1-en-7-yl)-4-(trifluoromethyl)quinoline-2-carboxylate] |
| 26 | O=C(O)c1cc(F)c2nc(N3CCC4(C=C(c5c(C6CC6)nnn5-c5c(Cl)cccc5Cl)C4)CC3)sc2c1 [Example 204, 2-(2-(4-Cyclopropyl-1-(2,6-dichlorophenyl)-1H-1,2,3-triazol-5-yl)-7-azaspiro[3.5]non-1-en-7-yl)-4-fluorobenzo[d]thiazole-6-carboxylic acid] |
| 2620 | O=C(O)c1cc(F)c2nc(OC3CCC4(CC3)CC(O)(c3c(-c5c(Cl)cccc5Cl)noc3C3CC3)C4)sc2c1 (centres unmarked) [Example 205, 2-((2-(5-Cyclopropyl-3-(2,6-dichlorophenyl)isoxazol-4-yl)-2-hydroxyspiro[3,5]nonan-7-yl)oxy)-4-fluorobenzo[d]thiazole-6-carboxylic acid] |
| 4710 | O=C(O)c1cccc(COC2CCC3(CC2)CC(O)(c2c(-c4c(Cl)cccc4Cl)noc2C2CC2)C3)c1 (centres unmarked) [Example 206, 3-(((2-(5-Cyclopropyl-3-(2,6-dichlorophenyl)isoxazol-4-yl)-2-hydroxyspiro[3.5]nonan-7-yl)oxy)methyl)benzoic acid] |
| 4470 | O=C(O)c1cccc(OC2CCC3(CC2)CC(O)(c2c(-c4c(Cl)cccc4Cl)noc2C2CC2)C3)c1 (centres unmarked) [Example 207, 3-((2-(5-Cyclopropyl-3-(2,6-dichlorophenyl)isoxazol-4-yl)-2-hydroxyspiro[3.5]nonan-7-yl)oxy)benzoic acid] |
| 6660 | O=C(O)c1ccc(OC2CCC3(CC2)CC(O)(c2c(-c4c(Cl)cccc4Cl)noc2C2CC2)C3)cc1 (centres unmarked) [Example 208, 4-((2-(5-Cyclopropyl-3-(2,6-dichlorophenyl)isoxazol-4-yl)-2-hydroxyspiro[3.5]nonan-7-yl)oxy)benzoic acid] |
| 1280 | O=C(O)c1cc(F)c2nc(OC3CCC4(C=C(c5c(-c6c(Cl)cccc6Cl)noc5C5CC5)C4)CC3)sc2c1 (centres unmarked) [Example 209, 2-((2-(5-Cyclopropyl-3-(2,6-dichlorophenyl)isoxazol-4-yl)spiro[3.5]non-1-en-7-yl)oxy)-4-fluorobenzo[d]thiazole-6-carboxylic acid] |
| 485 | O=C(O)c1ccc2cc(OC3CCC4(C=C(c5c(-c6c(Cl)cccc6Cl)noc5C5CC5)C4)CC3)ccc2n1 (centres unmarked) [Example 210, 6-((2-(5-Cyclopropyl-3-(2,6-dichlorophenyl)isoxazol-4-yl)spiro[3.5]non-1-en-7-yl)oxy)quinoline-2-carboxylic acid] |
| 1550 | O=C(O)c1cc(C(F)(F)F)c2cc(N3CCC4(C=C(c5c(C(C6CC6)C6CC6)noc5C5CC5)C4)CC3)ccc2n1 [Example 212, 6-(2-(5-Cyclopropyl-3-(dicyclopropylmethyl)isoxazol-4-yl)-7-azaspiro[3.5]non-1-en-7-yl)-4-(trifluoromethyl)quinoline-2-carboxylic acid] |
| 48 | O=C(O)c1cc(F)c2nc(N3CCC4(C=C(c5c(C(F)F)cnn5-c5ccccc5C(F)(F)F)C4)CC3)sc2c1 [Example 213, 2-(2-(4-(Difluoromethyl)-1-(2-(trifluoromethyl)phenyl)-1H-pyrazol-5-yl)-7-azaspiro[3.5]non-1-en-7-yl)-4-fluorobenzo[d]thiazole-6-carboxylic acid] |
| 26 | O=C(O)c1cc(C(F)(F)F)c2cc(N3CCC4(C=C(c5c(C(F)F)cnn5-c5ccccc5C(F)(F)F)C4)CC3)ccc2n1 [Example 214, 6-(2-(4-(Difluoromethyl)-1-(2-(trifluoromethyl)phenyl)-1H-pyrazol-5-yl)-7-azaspiro[3.5]non-1-en-7-yl)-4-(trifluoromethyl)quinoline-2-carboxylic acid] |
| 995 | O=C(O)c1cc(F)c2nc(N3CCC4(CC3)CC(c3c(C(F)F)cnn3-c3ccccc3C(F)(F)F)C4)sc2c1 [Example 215, 2-(2-(4-(Difluoromethyl)-1-(2-(trifluoromethyl)phenyl)-1H-pyrazol-5-yl)-7-azaspiro[3.5]nonan-7-yl)-4-fluorobenzo[d]thiazole-6-carboxylic acid] |
| 88 | O=C(O)c1cc(F)c2nc(N3CCC4(C=C(c5c(C(F)F)cnn5-c5c(Cl)cncc5Cl)C4)CC3)sc2c1 [Example 216, 2-(2-(1-(3,5-Dichloropyridin-4-yl)-4-(difluoromethyl)-1H-pyrazol-5-yl)-7-azaspiro[3.5]non-1-en-7-yl)-4-fluorobenzo[d]thiazole-6-carboxylic acid] |
| 230 | O=C(O)c1cc(F)c2nc(N3CCC4(C=C(c5c(C(F)F)cnn5-c5ccccc5OC(F)(F)F)C4)CC3)sc2c1 [Example 217, 2-(2-(4-(Difluoromethyl)-1-(2-(trifluoromethoxy)phenyl)-1H-pyrazol-5-yl)-7-azaspiro[3.5]non-1-en-7-yl)-4-fluorobenzo[d]thiazole-6-carboxylic acid] |
| 1080 | O=C(O)c1ccc(N2CCC3(C=C(c4c(C(F)F)cnn4-c4ccccc4OC(F)(F)F)C3)CC2)nc1 [Example 218, 6-(2-(4-(Difluoromethyl)-1-(2-(trifluoromethoxy)phenyl)-1H-pyrazol-5-yl)-7-azaspiro[3.5]non-1-en-7-yl)nicotinic acid] |
| 180 | Cn1cc(C(=O)O)c2ccc(N3CCC4(C=C(c5c(C(F)F)cnn5-c5ccccc5C(F)(F)F)C4)CC3)cc21 [Example 219, 6-(2-(4-(Difluoromethyl)-1-(2-(trifluoromethyl)phenyl)-1H-pyrazol-5-yl)-7-azaspiro[3.5]non-1-en-7-yl)-1-methyl-1H-indole-3-carboxylic acid] |
